Laboratory results reported in patent US3992371A, “Penicillins substituted with heterocyclic and substituted phenyl groups” (Sumitomo Chemical Company, Limited, priority 1973, dated 1976).
In brackets after ≈: the same amount, converted by molar mass.

Columns and labels:
[1] = system: gram-positive and gram-negative bacteria; conditions: background statement; cited from earlier work
[2] = system: Pseudomonas; conditions: background statement; cited from earlier work
[3] = system: Klebsiella pneumoniae PCI602; experiment: Minimal inhibitory concentration, agar dilution method; format: cell-based
From the text: (§1) When determined according to the agar dilution method, the penicillins (I) afford the minimal inhibitory concentrations against test microorganisms as shown in Table 2.

[4] = system: Staphylococcus aureus 209P; experiment: as above; format: cell-based
From the text: as §1

[5] = system: Escherichia coli NIHJ; experiment: as above; format: cell-based
From the text: as §1

[6] = system: Pseudomonas aeruginosa 104; experiment: as above; format: cell-based
From the text: as §1

[7] = system: Proteus miravilis GN2425; experiment: as above; format: cell-based
[8] = system: Proteus vulgaris HV19; experiment: as above; format: cell-based

For “6(α-amino-thienylacetamido)penicillanic acid”, the “inhibition of the growth of gram-positive and gram-negative bacteria” value (“inhibition” below) [1] is given as “inhibit the growth of various gram-positive and gram-negative bacteria” and the “antimicrobial activity against Pseudomonas” value (from here on “antimicrobial activity”) [2] is given as “do not exert any appreciable antimicrobial activity against Pseudomonas”.
In the case of “6-(α-amino-isothiazolylacetamido)penicillanic acid”, the “inhibition” value [1] is listed as “inhibit the growth of various gram-positive and gram-negative bacteria” and the “antimicrobial activity” value [2] is listed as “do not exert any appreciable antimicrobial activity against Pseudomonas”.
`CC1(C)S[C@@H]2[C@H](NC(=O)C(NC(=O)c3nc4ccccc4nc3O)c3cccc(N)c3)C(=O)N2[C@H]1C(=O)O` (stereo partly drawn) [Example 14] gave an MIC [3] of 12.5 µg/mL (≈ 23.3 µM), an MIC [4] of 0.78 µg/mL (≈ 1.45 µM) and an MIC [5] of 3.13 µg/mL (≈ 5.83 µM). For the same compound, the MIC [6] was 0.78 µg/mL (≈ 1.45 µM), the MIC [7] was 12.5 µg/mL (≈ 23.3 µM) and the MIC [8] was 0.78 µg/mL (≈ 1.45 µM).
Work on `CC1(C)SC2C(NC(=O)C(NC(=O)c3cnc4cc5c(cc4c3O)OCC5)c3cccc(N)c3)C(=O)N2C1C(=O)O` (stereo not drawn) [Example 49] yielded an MIC [3] of 6.25 µg/mL (≈ 10.8 µM), an MIC [4] of 0.78 µg/mL (≈ 1.35 µM) and an MIC [5] of 3.13 µg/mL (≈ 5.42 µM). It also gave an MIC [6] of 3.13 µg/mL (≈ 5.42 µM), an MIC [7] of 3.13 µg/mL (≈ 5.42 µM) and an MIC [8] of 0.2 µg/mL (≈ 0.346 µM).
`COc1ccc(C(NC(=O)c2cnc3ccncc3c2O)C(=O)NC2C(=O)N3C2SC(C)(C)C3C(=O)O)cc1` (stereo not drawn) [Example 41] gave an MIC [3] of 12.5 µg/mL (≈ 22.7 µM), an MIC [4] of 1.56 µg/mL (≈ 2.83 µM) and an MIC [5] of 3.13 µg/mL (≈ 5.67 µM). The MIC [6] was 3.13 µg/mL (≈ 5.67 µM), the MIC [7] was 12.5 µg/mL (≈ 22.7 µM) and the MIC [8] was 0.39 µg/mL (≈ 0.707 µM).
In the case of `CC1(C)S[C@@H]2[C@H](NC(=O)C3(N)CCCCC3)C(=O)N2[C@H]1C(=O)O` [Cyclacillin, 6-(1-amino-cyclohexanecarboxamide)penicillanic acid], the “inhibition” value [1] is given as “inhibit the growth of various gram-positive and gram-negative bacteria” and the “antimicrobial activity” value [2] is given as “do not exert any appreciable antimicrobial activity against Pseudomonas”.
`CC1(C)S[C@@H]2[C@H](NC(=O)C(NC(=O)c3cnc4cc(N)ccc4c3O)c3cccc(N)c3)C(=O)N2[C@H]1C(=O)O` (stereo partly drawn) [Example 27] gave an MIC [3] of 12.5 µg/mL (≈ 22.7 µM), an MIC [4] of 0.78 µg/mL (≈ 1.42 µM) and an MIC [5] of 3.13 µg/mL (≈ 5.68 µM). The MIC [6] was 3.13 µg/mL (≈ 5.68 µM), the MIC [7] was 3.13 µg/mL (≈ 5.68 µM) and the MIC [8] was 0.39 µg/mL (≈ 0.708 µM).
With `CSc1ccc2ncc(C(=O)NC(C(=O)N[C@@H]3C(=O)N4[C@@H]3SC(C)(C)[C@@H]4C(=O)O)c3ccc(N)cc3)c(O)c2n1` (stereo partly drawn) [Example 24] the MIC [3] was 6.25 µg/mL (≈ 10.7 µM), the MIC [4] was 1.56 µg/mL (≈ 2.68 µM) and the MIC [5] was 0.78 µg/mL (≈ 1.34 µM). For the same compound, the MIC [6] was 1.56 µg/mL (≈ 2.68 µM), the MIC [7] was 0.78 µg/mL (≈ 1.34 µM) and the MIC [8] was 0.025 µg/mL (≈ 0.0429 µM).
`CC1(C)S[C@@H]2[C@H](NC(=O)C(NC(=O)c3cnc4ccccc4c3O)c3cccc(N)c3)C(=O)N2[C@H]1C(=O)O` (stereo partly drawn) [Example 15] showed an MIC [3] of 6.25 µg/mL (≈ 11.7 µM), an MIC [4] of 0.78 µg/mL (≈ 1.46 µM) and an MIC [5] of 3.13 µg/mL (≈ 5.84 µM). The MIC [6] was 3.13 µg/mL (≈ 5.84 µM), the MIC [7] was 3.13 µg/mL (≈ 5.84 µM) and the MIC [8] was 0.2 µg/mL (≈ 0.373 µM).
`Cc1ccc(C(NC(=O)c2cnc3cccnc3c2O)C(=O)N[C@@H]2C(=O)N3[C@@H]2SC(C)(C)[C@@H]3C(=O)O)cc1` (stereo partly drawn) [Example 13] gave an MIC [3] of 6.25 µg/mL (≈ 11.7 µM), an MIC [4] of 1.56 µg/mL (≈ 2.91 µM) and an MIC [5] of 0.78 µg/mL (≈ 1.46 µM). The MIC [6] was 1.56 µg/mL (≈ 2.91 µM), the MIC [7] was 1.56 µg/mL (≈ 2.91 µM) and the MIC [8] was 0.05 µg/mL (≈ 0.0934 µM).
`COc1cc(C(NC(=O)c2cnc3cccnc3c2O)C(=O)NC2C(=O)N3C2SC(C)(C)C3C(=O)O)ccc1O` (stereo not drawn) [Example 64] showed an MIC [3] of 12.5 µg/mL (≈ 22 µM), an MIC [4] of 1.56 µg/mL (≈ 2.75 µM) and an MIC [5] of 3.13 µg/mL (≈ 5.51 µM). It also gave an MIC [6] of 1.56 µg/mL (≈ 2.75 µM), an MIC [7] of 3.13 µg/mL (≈ 5.51 µM) and an MIC [8] of 0.05 µg/mL (≈ 0.0881 µM).
With `CC1(C)SC2C(NC(=O)C(NC(=O)c3cnc4cccnc4c3O)c3ccc(O)c(N)c3)C(=O)N2C1C(=O)O` (stereo not drawn) [Example 63] the MIC [3] was 6.25 µg/mL (≈ 11.3 µM), the MIC [4] was 0.78 µg/mL (≈ 1.41 µM) and the MIC [5] was 0.78 µg/mL (≈ 1.41 µM). The MIC [6] was 1.56 µg/mL (≈ 2.82 µM), the MIC [7] was 1.56 µg/mL (≈ 2.82 µM) and the MIC [8] was 0.025 µg/mL (≈ 0.0452 µM).
In the case of `COc1nc(OC)c2c(O)c(C(=O)NC(C(=O)NC3C(=O)N4C3SC(C)(C)C4C(=O)O)c3ccc(N)cc3)cnc2n1` (stereo not drawn) [Example 32], the MIC [3] was 12.5 µg/mL (≈ 20.9 µM), the MIC [4] was 1.56 µg/mL (≈ 2.61 µM) and the MIC [5] was 3.13 µg/mL (≈ 5.24 µM). For the same compound, the MIC [6] was 3.13 µg/mL (≈ 5.24 µM), the MIC [7] was 3.13 µg/mL (≈ 5.24 µM) and the MIC [8] was 0.05 µg/mL (≈ 0.0837 µM).
With `CCOC(=O)Oc1c(C(=O)NC(C(=O)N[C@@H]2C(=O)N3[C@@H]2SC(C)(C)[C@@H]3C(=O)O)c2cccc(Cl)c2)cnc2cccnc12` (stereo partly drawn) [Example 12] the MIC [3] was 12.5 µg/mL (≈ 19.9 µM), the MIC [4] was 1.56 µg/mL (≈ 2.48 µM) and the MIC [5] was 1.56 µg/mL (≈ 2.48 µM). For the same compound, the MIC [6] was 3.13 µg/mL (≈ 4.98 µM), the MIC [7] was 1.56 µg/mL (≈ 2.48 µM) and the MIC [8] was 0.05 µg/mL (≈ 0.0796 µM).
`CNc1ncc2c(O)c(C(=O)NC(C(=O)NC3C(=O)N4C3SC(C)(C)C4C(=O)O)c3cccc(N)c3)cnc2n1` (stereo not drawn) [Example 43] gave an MIC [3] of 12.5 µg/mL (≈ 22.1 µM), an MIC [4] of 1.56 µg/mL (≈ 2.75 µM) and an MIC [5] of 3.13 µg/mL (≈ 5.52 µM). For the same compound, the MIC [6] was 3.13 µg/mL (≈ 5.52 µM), the MIC [7] was 1.56 µg/mL (≈ 2.75 µM) and the MIC [8] was 0.05 µg/mL (≈ 0.0882 µM).
For `Cc1ccc2ncc(C(=O)NC(C(=O)NC3C(=O)N4C3SC(C)(C)C4C(=O)O)c3ccc(N(C)C)cc3)c(O)c2n1` (stereo not drawn) [Example 45], the MIC [3] was 6.25 µg/mL (≈ 10.8 µM), the MIC [4] was 1.56 µg/mL (≈ 2.7 µM) and the MIC [5] was 3.13 µg/mL (≈ 5.41 µM). For the same compound, the MIC [6] was 1.56 µg/mL (≈ 2.7 µM), the MIC [7] was 6.25 µg/mL (≈ 10.8 µM) and the MIC [8] was 0.1 µg/mL (≈ 0.173 µM).
